In ChEMBL document CHEMBL4000166, “Stachybotrysin, an Osteoclast Differentiation Inhibitor from the Marine-Derived Fungus Stachybotrys sp. KCB13F013” (J Nat Prod, 2016):
Active and inactive are the calls of the source. No cut-off for these calls is given here.

Experiments:
BMMC [1] = experiment: Inhibition of M-CSF/RANKL-induced osteoclast differentiation in mouse BMMC after 4 days by TRAP staining method; type: functional, cell-based
Mus musculus [2] = organism: Mus musculus; experiment: Inhibition of M-CSF/RANKL-induced ERK phosphorylation in mouse BMMC at 5 ug/ml preincubated with M-CSF for 6 mins followed by RANKL addition measured after 5 mins by Western blot method
Mus musculus [3] = organism: Mus musculus; experiment: Inhibition of M-CSF/RANKL-induced JNK phosphorylation in mouse BMMC at 5 ug/ml preincubated with M-CSF for 6 mins followed by RANKL addition measured after 5 mins by Western blot method
[4] = target: MAP kinase p38 (Mus musculus) (UniProt P47811+O08911+Q9WUI1+Q9Z1B7); experiment: Inhibition of M-CSF/RANKL-induced p38 phosphorylation in mouse BMMC at 5 ug/ml preincubated with M-CSF for 6 mins followed by RANKL addition measured after 5 mins by Western blot method
[5] = target: T1, NF-kappa-B inhibitor alpha (Mus musculus) (UniProt Q9Z1E3); experiment: Effect on IkappaBalpha phosphorylation in mouse BMMC at 5 ug/ml preincubated with M-CSF for 6 mins followed by RANKL addition measured after 5 to 30 mins by Western blot method
T1 sequence (whole entry): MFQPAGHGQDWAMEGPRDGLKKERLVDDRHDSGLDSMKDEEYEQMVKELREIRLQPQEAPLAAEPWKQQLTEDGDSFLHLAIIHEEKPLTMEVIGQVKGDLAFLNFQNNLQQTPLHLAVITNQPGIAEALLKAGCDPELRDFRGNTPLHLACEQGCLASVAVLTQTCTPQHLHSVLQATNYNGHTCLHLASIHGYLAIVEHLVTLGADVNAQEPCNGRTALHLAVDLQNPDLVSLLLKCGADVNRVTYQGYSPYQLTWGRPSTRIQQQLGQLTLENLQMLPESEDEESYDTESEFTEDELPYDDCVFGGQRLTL

BMMC [6] = experiment: Inhibition of M-CSF/RANKL-induced osteoclast differentiation in mouse BMMC at 5 to 10 ug/ml after 4 days by TRAP staining method; type: functional, cell-based

SMILES | inhibition (BMMC [1]) | inhibition (Mus musculus [2]) | inhibition (Mus musculus [3]) | inhibition [4] | Activity [5] | inhibition (BMMC [6])
CC(=O)/C=C/c1c(CO)cc(O)c2c1O[C@]1(C2)[C@H](C)CC[C@H]2C(C)(C)[C@H](O)CC[C@@]21C | Dose-dependent effect | Active | Active | Active | inactive | –
C[C@@H]1CC[C@H]2C(C)(C)[C@H](O)CC[C@]2(C)[C@@]12Cc1c(O)cc3c(c1O2)C(=O)OC3 | – | – | – | – | – | inactive
